The source of these data is ChEMBL document CHEMBL5053551, “Structure-Based Design of Dual Partial Peroxisome Proliferator-Activated Receptor γ Agonists/Soluble Epoxide Hydrolase Inhibitors” (J Med Chem, 2021).

Data set [1] is described as follows: Stability of compound in BALB/c mouse liver microsomes assessed as half life at 10 uM preincubated for 5 mins in presence of NADPH regenerating system followed by microsomal addition and measured upto 60 mins by HPLC analysis. To be noted: time 65 min. Format: ADME, Microsome. A general note: Microsomes from liver hold many membrane-bound enzymes, among them those of drug oxidation.

Data set [2] is described as follows: Stability of compound in Sprague-Dawley rat liver microsomes assessed as half life at 10 uM preincubated for 5 mins in presence of NADPH regenerating system followed by microsomal addition and measured upto 60 mins by HPLC analysis. The conditions noted are these: time 65 min. Format: ADME, Microsome.
Data set [3] in a line: Solubility of compound in DPBS buffer. It counts as physicochemical.
For data set [4], the target named is T1, Nuclear receptor subfamily 1 group I member 3 (Homo sapiens, UniProt Q14994).
T1 sequence (Q14994 whole entry): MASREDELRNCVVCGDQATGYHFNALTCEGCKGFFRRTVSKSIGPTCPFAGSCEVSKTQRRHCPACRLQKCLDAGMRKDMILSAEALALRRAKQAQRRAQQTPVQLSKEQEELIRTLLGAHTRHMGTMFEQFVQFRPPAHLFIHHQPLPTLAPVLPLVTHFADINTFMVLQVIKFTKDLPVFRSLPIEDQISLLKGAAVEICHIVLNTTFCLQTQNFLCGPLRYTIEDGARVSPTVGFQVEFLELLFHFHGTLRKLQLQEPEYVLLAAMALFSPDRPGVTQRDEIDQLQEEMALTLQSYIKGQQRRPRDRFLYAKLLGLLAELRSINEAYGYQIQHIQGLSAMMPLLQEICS
Nature of the data set: Partial agonist activity at GAL4-tagged human CAR LBD expressed in HEK293T cells at 3 uM incubated for 12 to 14 hrs by dual-Glo luciferase assay. Format: cell-based. To be noted: time 12-14 hrs.

For data set [5], the target named is T2, Peroxisome proliferator-activated receptor gamma (Homo sapiens, UniProt P37231).
T2 sequence (P37231 whole entry): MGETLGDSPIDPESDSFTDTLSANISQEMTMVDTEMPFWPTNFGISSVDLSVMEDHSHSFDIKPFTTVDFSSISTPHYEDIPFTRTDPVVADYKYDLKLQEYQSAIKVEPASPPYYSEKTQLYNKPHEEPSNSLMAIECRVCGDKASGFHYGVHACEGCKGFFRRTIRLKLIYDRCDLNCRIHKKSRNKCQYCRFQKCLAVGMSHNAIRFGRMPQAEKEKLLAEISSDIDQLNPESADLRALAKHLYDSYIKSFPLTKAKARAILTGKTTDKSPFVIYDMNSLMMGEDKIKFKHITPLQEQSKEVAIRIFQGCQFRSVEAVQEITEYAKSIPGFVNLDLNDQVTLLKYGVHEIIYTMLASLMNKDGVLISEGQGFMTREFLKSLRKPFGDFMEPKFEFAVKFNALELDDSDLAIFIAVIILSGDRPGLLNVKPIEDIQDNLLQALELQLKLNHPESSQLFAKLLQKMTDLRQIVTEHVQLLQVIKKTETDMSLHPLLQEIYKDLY
Nature of the data set: Partial agonist activity at sGSF-PPARgamma (unknown origin) assessed as CBP-1 recruitment by HT-FRET assay.

The target of data set [6] is T3, Peroxisome proliferator-activated receptor delta (Homo sapiens) (UniProt Q03181).
T3 sequence (whole entry): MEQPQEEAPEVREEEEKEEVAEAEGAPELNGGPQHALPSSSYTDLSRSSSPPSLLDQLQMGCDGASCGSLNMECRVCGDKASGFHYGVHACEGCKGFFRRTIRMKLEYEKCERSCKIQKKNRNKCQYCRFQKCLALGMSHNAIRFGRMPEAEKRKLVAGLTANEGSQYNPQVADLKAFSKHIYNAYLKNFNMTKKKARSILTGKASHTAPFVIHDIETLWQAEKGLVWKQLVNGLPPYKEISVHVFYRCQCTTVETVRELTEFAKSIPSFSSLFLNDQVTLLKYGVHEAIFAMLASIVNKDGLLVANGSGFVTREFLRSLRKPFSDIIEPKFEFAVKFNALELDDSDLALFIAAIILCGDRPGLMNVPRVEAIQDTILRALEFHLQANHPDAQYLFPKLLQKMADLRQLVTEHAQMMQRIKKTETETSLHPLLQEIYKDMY
Briefly: Partial agonist activity at GAL4-tagged human PPARdelta LBD expressed in HEK293T cells at 3 uM incubated for 12 to 14 hrs by dual-Glo luciferase assay. It counts as cell-based. The conditions noted are these: time 12-14 hrs.

Data set [7] concerns the target T4, Peroxisome proliferator-activated receptor gamma (Homo sapiens) (UniProt P37231).
T4 sequence (whole entry): T2 sequence (P37231 whole entry)
Nature of the data set: Partial agonist activity at recombinant sGSF-PPARgamma (unknown origin) assessed as CBP-1 recruitment by HT-FRET assay relative to control.

Data set [8] deals with T5, Bifunctional epoxide hydrolase 2 (Mus musculus, UniProt P34914).
T5 sequence (P34914 whole entry): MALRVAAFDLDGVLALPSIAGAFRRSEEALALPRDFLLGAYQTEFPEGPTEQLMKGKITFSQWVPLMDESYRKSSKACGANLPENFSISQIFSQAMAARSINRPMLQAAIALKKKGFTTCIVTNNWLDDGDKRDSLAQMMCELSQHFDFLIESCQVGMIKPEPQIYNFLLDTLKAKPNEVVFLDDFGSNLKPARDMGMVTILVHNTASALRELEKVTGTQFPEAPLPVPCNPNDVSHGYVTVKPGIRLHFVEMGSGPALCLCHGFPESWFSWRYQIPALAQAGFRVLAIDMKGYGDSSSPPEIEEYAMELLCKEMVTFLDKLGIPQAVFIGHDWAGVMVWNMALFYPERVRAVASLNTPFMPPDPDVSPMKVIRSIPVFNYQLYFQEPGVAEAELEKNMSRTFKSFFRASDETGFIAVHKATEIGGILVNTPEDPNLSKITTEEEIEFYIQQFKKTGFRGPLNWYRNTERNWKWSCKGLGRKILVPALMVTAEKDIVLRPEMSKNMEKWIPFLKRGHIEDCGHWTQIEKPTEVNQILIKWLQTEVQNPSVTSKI
Briefly: Inhibition of N-terminal His-tagged mouse sEH (2 to 554 residues) expressed in Escherichia coli Rosetta2 (DE3) assessed as reduction in 6-methoxy-2-naphthaldehyde formation using PHOME as substrate preincubated for 30 to 45 mins followed by substrate addition and measured after 30 to 45 mins by fluorescence assay.

Data set [9] in a line: Stability of compound in human liver microsomes assessed as half life at 10 uM preincubated for 5 mins in presence of NADPH regenerating system followed by microsomal addition and measured upto 60 mins by HPLC analysis. The conditions noted are these: time 65 min. Format: ADME, Microsome.
For data set [10], the target named is T2, Peroxisome proliferator-activated receptor gamma. Nature of the data set: Partial agonist activity at GAL4-tagged human PPARgamma LBD expressed in HEK293T cells incubated for 12 to 14 hrs by dual-Glo luciferase assay. Format: cell-based.
Data set [11] relates to HepG2. Nature of the data set: Cytotoxicity against human HepG2 cells assessed as reduction in ATP level at above 25 to 50 uM after 72 hrs by CellTiter-glo luminescence assay. To be noted: hepg2, 72 h, dose 25-50 µM. Format: cell-based. (In ATP-based viability assays light output follows the ATP content of the culture.)

≈ marks a conversion by molar mass, not a printed value. Calls of active or inactive are those of the source.

As to `CS(=O)(=O)Nc1ccc(CNC(=O)c2ccc3c(ccn3Cc3cccc(F)c3)c2)c(C(F)(F)F)c1`, the results for the half-life at 10 µM in [1], in data set [2] and in [9] were 1.02 h, 0.867 h and 1.68 h, respectively. The molecule also displayed a solubility in data set [3] of 3 µM (≈ 1.56 µg/mL). For the same molecule, the Activity entry in data set [4] was “Active”; in data set [11], “Toxic”. Besides, the concentration giving a half-maximal response (EC50) in data set [5] was found to be 330 nM; in [10] it was 190 nM. In [6], the result was inactive. In addition, the Emax in [7] stood at 19%. For the same molecule, the 50% inhibitory concentration (IC50) in data set [8] stood at 46 nM.

Consider `O=C(NCc1ccc(NS(=O)(=O)C2CC2)cc1C(F)(F)F)c1ccc2c(ccn2Cc2cccc(F)c2)c1`, for which the half-life at 10 µM in data set [1] was found to be 0.983 h; in data set [2], 0.95 h; in data set [9], 1.38 h. Further, in data set [3], the solubility came to 3 µM (≈ 1.64 µg/mL). Moreover, the Activity result in [4] is on record as “Active”; in [11] it was “Toxic”. Moreover, the values for the EC50 in [5] and in [10] were 180 nM and 220 nM, respectively. Also, in [6], the result was inactive. Moreover, in data set [7], the Emax came out at 28%. The IC50 in data set [8] is 202 nM.

Usually half-life stands for the time needed for the level to fall by half in the phase considered. As usually defined, the solubility is the concentration that dissolves in the medium under given conditions. Low readings indicate a poorly soluble substance, high ones a readily soluble substance. By EC50 is commonly meant the concentration giving half of the maximal effect. The term IC50 denotes the concentration at which inhibition is half-maximal.
